Laboratory results published in patent publication US7893299B2, “Interleukin-1 and tumor necrosis factor-αmodulators; syntheses of such modulators and methods of using such modulators” (Nereus Pharmaceuticals, Inc., priority 2005, dated 2011).
Read-outs that look alike come from different tables or passages of the source.

How the values were obtained:
MDA-MB-231 (Breast) = test: 48 hr cytotoxicity, MDA-MB-231; assay type: cell-based, human
Method: B16-F10 (ATCC; CRL-6475), DU 145 (ATCC; HTB-81), HEK293 (ATCC; CRL-1573), HT-29 (ATCC; HTB-38), LoVo (ATCC; CCL-229), MDA-MB-231 (ATCC; HTB-26), MIA PaCa-2 (ATCC; CRL-1420), NCI-H292 (ATCC; CRL-1848), OVCAR-3 (ATCC, HTB-161), PANC-1 (ATCC; CRL-1469), PC-3 (ATCC; CRL-1435), RPMI 8226 (ATCC; CCL-155) and U266 (ATCC; TIB-196) are maintained in appropriate culture media. The cells are cultured in an incubator at 37° C. in 5% CO2 and 95% humidified air.
For cell growth inhibition assays, B16-F10, DU 145, HEK293, HT-29, LoVo, MDA-MB-231, MIA PaCa-2, NCI-H292, OVCAR-3, PANC-1, PC-3, RPMI 8226 and U266 cells are seeded at 1.25×10^3, 5×10^3, 1.5×10^4, 5×10^3, 5×10^3, 1×10^4, 2×10^3, 4×10^3, 1×10^4, 7.5×10^3, 5×10^3, 2×10^4, 2.5×10^4 cells/well respectively in 90 μl complete media into Corning 3904 black-walled, clear-bottom tissue culture plates. 20 mM stock solutions of compounds of Formula II, IIA, and IIB are prepared in 100% DMSO, aliquoted and stored at −80° C. Compounds of Formula II, IIA, and IIB are serially diluted and added in triplicate to the test wells resulting in final concentrations ranging from of 20 μM to 0.2 pM. […]
Following 48 hours of drug exposure, 10 μl of 0.2 mg/ml resazurin (obtained from Sigma-Aldrich Chemical Co.) in Mg^2+, Ca^2+ free phosphate buffered saline is added to each well and the plates are returned to the incubator for 3-6 hours. Since living cells metabolize Resazurin, the fluorescence of the reduction product of Resazurin is measured using a Fusion microplate fluorometer (Packard Bioscience) with λex=535 nm and λem=590 nm filters. […]
The cytotoxicity assays were performed by seeding individual cell lines at appropriate density in the 96 well flat-bottomed plates and allowed to attach for 24 hours at 37° C., 5% CO2 and 95% humidified air (RPMI 8226 and U266 cells were plated in 96 well plates on the day of compound addition). […] Cell viability was assessed 48 hours later by measuring the fluorescence of the reduction product of Resazurin by a Fusion microplate fluorometer (PerkinElmer) with λex=535 nm and λem=590 nm filters. […]

[1] = system: bone marrow stromal cells (BMSCs); test: viability of MM patient-derived bone marrow stromal cells (BMSCs); assay type: cell-based
Source text: (§1) Besides nuclear condensation, NF-KB inhibitor triggered proteolytic cleavage of poly (ADP ribose) polymerase (PARP), a hallmark of apoptosis.

HT-29 (Colon) = test: 48 hr cytotoxicity, HT-29; assay type: cell-based, human
Method: Human colon adenocarcinoma HT-29 (ATCC# HTB-38), prostate adenocarcinoma PC-3 (ATCC# CRL-1435), breast adenocarcinoma MDA-MB231 (ATCC# HTB-26), Multiple Myeloma RPMI 8226 (ATCC# CCL-155) and U266 (ATCC # TIB-196) cell lines and human normal fibroblast CCD-27sk (ATCC# CRL-1475) were all purchased from ATCC (Manassas, Va.). The cells were maintained in their respective ATCC recommended culture media at 37° C., 5% CO2 and 95% humidified air.
The cytotoxicity assays were performed by seeding individual cell lines at appropriate density in the 96 well flat-bottomed plates and allowed to attach for 24 hours at 37° C., 5% CO2 and 95% humidified air (RPMI 8226 and U266 cells were plated in 96 well plates on the day of compound addition). Serially diluted NPI-1387 was added in triplicate to cells at concentrations ranging from 160 nM to 20 μM. Final concentration of 0.25% (v/v) DMSO was used as the vehicle control. Cell viability was assessed 48 hours later by measuring the fluorescence of the reduction product of Resazurin by a Fusion microplate fluorometer (PerkinElmer) with λex=535 nm and λem=590 nm filters. The IC50 values (the drug concentration at which 50% of the maximal observed cytotoxicity is established) were calculated in XLFit 3.0 or XLFit 4.0 (ID Business Solutions Ltd) using a sigmoidal dose response model.

IKKα = IKKα (Mus musculus, UniProt Q60680); assay type: cell-based; settings: LPS-stimulated RAW264.7; 1, 5, 10 and 20 μM
Method: (§2) Cells were treated with 1, 5, 10 and 20 μM of NPI-1387 for 1 hour and then stimulated with 10 ng/ml LPS for 10 or 30 min. To determine the phosphorylation of IRAK1, whole cell extracts were prepared in RIPA buffer [0.9% NaCl, 50 mM Tris-HCl (pH7.4), 1% Triton X-100, 1 mM EDTA, 0.25% Na-deoxycholic acid, 0.1% SDS, 1 mM Na3VO4, 1 mM NaF and protease inhibitors]. […] Following electro-transfer, the membranes were blocked in Blotto (5%, w/v) non-fat milk in 1×TBST [20 mM Tris, 0.8% (w/v) NaCl, pH 7.6, 0.1% (v/v) Tween 20]. Membranes were then incubated with primary antibodies against IRAK1 (Santa Cruz Biotechnology), total IκBα (Cell Signaling Technology), phospho-IκBα (Cell Signaling Technology) and Tubulin (Lab Vision) in Blotto for 2 hours. The membranes were washed in TBST and (where necessary) incubated with the HRP-conjugated secondary antibody in Blotto for 1 hour before washing extensively with TBST. HRP activity was visualized by utilizing either SuperSignal West Pico or Dura chemiluminescent detection systems (Pierce Biotechnology). […] The protein samples were separated by 10% NuPAGE MES precast gels (Invitrogen) and the extent of GST-IκBα phosphorylation was evaluated by western blotting using the antibody against phospho-IκBα (Cell Signaling Technology).

IRAK1 = assay type: cell-based; settings: LPS-stimulated RAW264.7; 1, 5, 10 and 20 μM
Method: as §2

[2] = system: peripheral blood mononuclear cells; test: viability of peripheral blood mononuclear cells from normal healthy donors; assay type: cell-based
Source text: as §1

IKKα, sequence (Q60680 whole entry): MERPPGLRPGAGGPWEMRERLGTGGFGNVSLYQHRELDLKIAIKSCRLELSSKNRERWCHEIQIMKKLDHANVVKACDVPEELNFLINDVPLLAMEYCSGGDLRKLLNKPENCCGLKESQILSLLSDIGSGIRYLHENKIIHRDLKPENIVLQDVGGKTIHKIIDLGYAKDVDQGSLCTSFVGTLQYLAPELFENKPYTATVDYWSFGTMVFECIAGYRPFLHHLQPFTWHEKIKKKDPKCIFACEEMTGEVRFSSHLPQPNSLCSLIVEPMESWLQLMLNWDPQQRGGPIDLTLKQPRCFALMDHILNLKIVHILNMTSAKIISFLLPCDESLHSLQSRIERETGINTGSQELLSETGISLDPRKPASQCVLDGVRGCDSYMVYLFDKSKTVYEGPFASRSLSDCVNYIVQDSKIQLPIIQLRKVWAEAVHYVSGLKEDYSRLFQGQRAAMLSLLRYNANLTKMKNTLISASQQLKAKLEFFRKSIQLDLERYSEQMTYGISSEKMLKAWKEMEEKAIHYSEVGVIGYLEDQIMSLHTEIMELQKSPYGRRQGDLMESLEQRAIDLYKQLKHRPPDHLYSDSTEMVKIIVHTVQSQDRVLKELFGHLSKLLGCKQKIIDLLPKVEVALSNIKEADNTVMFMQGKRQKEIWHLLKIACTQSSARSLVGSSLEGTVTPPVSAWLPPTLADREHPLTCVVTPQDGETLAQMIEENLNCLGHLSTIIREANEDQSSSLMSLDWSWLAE

Question: For `C=CC(=O)C1(C)CCCC2(C)C3=CCC(C)(C=C)C[C@@H]3CC[C@H]12` (stereo in doubt) [NPI-1387, 1-[(1S,4aS,7R)-1,4a,7-Trimethyl-7-vinyl-1,2,3,4,4a,6,7,8,8a,9,10,10a-dodecahydro-1-phenanthrenyl]-2-propen-1-one], which IC50 (MDA-MB-231 (Breast)) is on record?
Answer: 15 ± 4 µM

Question: And the IC50 (MDA-MB-231 (Breast); Homo sapiens, MDA-MB-231, 48 h)?
Answer: 18 ± 2 µM

Question: And the “viability of bone marrow stromal (stem) cells” value [1]?
Answer: does not affect the viability of bone marrow stem cells

Question: What about the “viability of bone marrow stromal (stem) cells” value ([1]; listed as NF-KB inhibitor) of the same compound?
Answer: does not affect the viability

Question: And the IC50 (HT-29 (Colon))?
Answer: 13 ± 6 µM

Question: What about the IC50 (HT-29 (Colon); Homo sapiens, HT-29, 48 h) of the same compound?
Answer: 14 ± 6 µM

Question: What about the “kinase activity of IKKα” value (IKKα) of the same compound?
Answer: reduces kinase activity of IKKα in a dose-dependent manner

Question: What about the “phosphorylation of IRAK1 (and its downstream target IκBα)” value (IRAK1) of the same compound?
Answer: inhibits the phosphorylation of IRAK1

Question: What about the “toxicity against / change in viable peripheral blood mononuclear cells” value [2] of the same compound?
Answer: relatively minimal

Question: What about the “toxicity against / change in viable peripheral blood mononuclear cells” value ([2]; listed as NF-KB inhibitor) of the same compound?
Answer: no significant toxicity
